In brackets after ≈: the same amount, converted by molar mass. Like-named read-outs stand apart in the source and are kept apart here.
What was measured:
[1] = L929 cytotoxicity evaluation (resazurin); type: cell-based; details: mouse, L929 mouse fibroblast cells; 72 hrs incubation; read-out: Cytotox L-929 IC50
In short: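 Mouse L929 fibroblasts (1×10^4/mL seeding, attached overnight) were treated 72 h at 37 °C, 5% CO2 with serially diluted compounds in DMSO in D-MEM/10% FBS. Viability read by resazurin fluorescence after 3–4 h (ex 544/em 590 nm); IC50 from sigmoidal fits of single data points.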

[2] = system: bloodstream-form trypanosome T. brucei brucei 427 strain; assay: Trypanosoma brucei brucei high-throughput in vitro drug sensitivity assay (resazurin); type: cell-based; details: for Selectivity Index (L929 IC50 / T. b. brucei IC50): T. b. brucei vs L929; for IC50: Trypanosoma brucei
[3] = Kinetic solubility by nephelometric (light scattering) method; type: physicochemical; details: phosphate buffered saline, aqueous buffer, kinetic from dmso stock, PBS pH 7.4
Method: The kinetic solubilities of compounds were estimated using a nephelometric (light scattering) method. Briefly, compounds were serially diluted in DMSO, followed by dilution in PBS pH 7.4. After incubation, the amount of light scattered by a compound at each concentration was measured. […] At concentrations above the solubility limit, the compound precipitates and the precipitant in the well scatters the light, generating a signal. Higher levels of precipitant in a well scatter more light and produce a stronger signal.
A stock solution of compound (25 mM in DMSO) was prepared, and was serially diluted in DMSO in two-fold increments in a row of a 96 well plate to a lowest concentration of 24 μM. A duplicate plate was prepared by transfer of half of the volume of each well to a new plate. Each well containing DMSO solution of the test compound was then diluted further (1:100) with phosphate buffered saline (pH 7.4) to provide aqueous solutions of compound at the following final concentrations: 250, 125, 62.5, 31.3, 15.6, 7.8, 3.9, 2.0, 1.0, 0.5 and 0.2 μM. All liquid handling stages were performed on a Beckman Coulter Biomek NX Laboratory Automation Workstation. Each compound was diluted and tested in duplicate, providing four separate wells at each test concentration.
The test solutions of compound were incubated at room temperature for 90 minutes and then analyzed using a Thermoskan Ascent nephelometric plate reader. The nephelometer protocol included two steps: first, the plate was shaken for 60 seconds at 1200 rpm, then each well of the plate was read in succession with an 800 ms settling delay between measurements. The total measurement time for a single plate was less than 4 minutes.
The four values (in nephelometric units) obtained for each compound at each concentration were averaged and plotted on a log scale versus concentration.

[4] = 72 hrs incubation, read-out: T. b. brucei IC50
[5] = 72 hrs incubation, read-out: T.b. brucei IC50

SMILES | IC50 at 72 h [1] [µg/mL] | Selectivity Index (L929 IC50 / T. b. brucei IC50) [2] | IC50 [2, 4] [nM] | IC50 [2, 5] [µg/mL] | solubility at 90 min [3] [µM] | IC50 ([2]; 72 h, read-out: T.b. brucei IC50 (ug/mL)) [µg/mL]
Cc1ccc(C(=O)Nc2ccc3c(c2)B(O)OC3C)cc1 (stereo not shown) [compound 7, N-(1-Hydroxy-3-methyl-1,3-dihydro-benzo[c][1,2]oxaborol-6-yl)-4-methyl-benzamide] | 5.61 (≈ 20 µM) | 137 | 146 | 0.041 | 100 (≈ 28.1 µg/mL) | –
CC1OB(O)c2cc(NC(=O)c3ccccc3F)ccc21 (stereo not shown) [compound 8, 2-Fluoro-N-(1-hydroxy-3-methyl-1,3-dihydro-benzo[c][1,2]oxaborol-6-yl)-benzamide] | 5.86 (≈ 20.6 µM) | 84 | 246 | 0.07 | 50 (≈ 14.3 µg/mL) | –
CC1OB(O)c2cc(NC(=O)c3ccc(Cl)cc3)ccc21 (stereo not shown) [compound 9, 4-Chloro-N-(1-hydroxy-3-methyl-1,3-dihydro-benzo[c][1,2]oxaborol-6-yl)-benzamide] | > 10 | >208 | 159 | 0.048 | 25 (≈ 7.54 µg/mL) | –
CC1OB(O)c2cc(NC(=O)c3ccc(F)cc3F)ccc21 (stereo not shown) [compound 12, 2,4-Difluoro-N-(1-hydroxy-3-methyl-1,3-dihydro-benzo[c][1,2]oxaborol-6-yl)-benzamide] | > 10 | >123 | 267 | 0.081 | 100 (≈ 30.3 µg/mL) | –
CC1OB(O)c2cc(NC(=O)c3ccc(F)cc3Cl)ccc21 (stereo not shown) [compound 13, 2-Chloro-4-fluoro-N-(1-hydroxy-3-methyl-1,3-dihydro-benzo[c][1,2]oxaborol-6-yl)-benzamide] | 2 (≈ 6.26 µM) | 47 | 135 | 0.043 | > 200 | –
CC1OB(O)c2cc(NC(=O)c3ccccc3Br)ccc21 (stereo not shown) [compound 14, 2-Bromo-N-(1-hydroxy-3-methyl-1,3-dihydro-benzo[c][1,2]oxaborol-6-yl)-benzamide] | 1.67 (≈ 4.83 µM) | 39 | 124 | 0.043 | 100 (≈ 34.6 µg/mL) | –
O=C(Nc1ccc2c(c1)B(O)OC2C1CCCC1)c1ccccc1C(F)(F)F (stereo not shown) [compound 17, N-(3-Cyclopentyl-1-hydroxy-1,3-dihydro-benzo[c][1,2]oxaborol-6-yl)-2-trifluoromethyl-benzamide] | > 10 | >15 | 1680 | 0.655 | 25 (≈ 9.73 µg/mL) | –
O=C(Nc1ccc2c(c1)B(O)OC2C1CCCC1)c1ccc(F)cc1C(F)(F)F (stereo not shown) [compound 19, N-(3-Cyclopentyl-1-hydroxy-1,3-dihydro-benzo[c][1,2]oxaborol-6-yl)-4-fluoro-2-trifluoromethyl-benzamide] | > 10 | >3 | 7810 | 3.18 | 100 (≈ 40.7 µg/mL) | –
CC(C)CC1OB(O)c2cc(NC(=O)c3ccc(F)cc3C(F)(F)F)ccc21 (stereo not shown) [compound 23, 4-Fluoro-N-(1-hydroxy-3-isobutyl-1,3-dihydro-benzo[c][1,2]oxaborol-6-yl)-2-trifluoromethyl-benzamide] | > 10 | >4 | 6100 | 2.41 | 25 (≈ 9.88 µg/mL) | –
CC1(C)OB(O)c2cc(NC(=O)c3ccccc3)ccc21 [compound 26, N-(1-Hydroxy-3,3-dimethyl-1,3-dihydro-benzo[c][1,2]oxaborol-6-yl)-benzamide] | > 10 | – | – | > 5 | 200 (≈ 56.2 µg/mL) | –
CC(C)(C)c1ccc(C(=O)Nc2ccc3c(c2)B(O)OC3(C)C)cc1 [compound 33, 4-tert-Butyl-N-(1-hydroxy-3,3-dimethyl-1,3-dihydro-benzo[c][1,2]oxaborol-6-yl)-benzamide] | > 10 | – | – | 0.229 | 6 (≈ 2.02 µg/mL) | –
CC1(C)OB(O)c2cc(NC(=O)c3ccccc3C(F)(F)F)ccc21 [compound 34, N-(1-Hydroxy-3,3-dimethyl-1,3-dihydro-benzo[c][1,2]oxaborol-6-yl)-2-trifluoromethyl-benzamide] | > 10 | >94 | 304 | 0.106 | 50 (≈ 17.5 µg/mL) | –
CC1(C)OB(O)c2cc(NC(=O)c3ccccc3Cl)ccc21 [compound 38, 2-Chloro-N-(1-hydroxy-3,3-dimethyl-1,3-dihydro-benzo[c][1,2]oxaborol-6-yl)-benzamide] | > 10 | >60 | 532 | 0.168 | 13 (≈ 4.1 µg/mL) | –
CC1(C)OB(O)c2cc(NC(=O)c3ccccc3Br)ccc21 [compound 39, 2-Bromo-N-(1-hydroxy-3,3-dimethyl-1,3-dihydro-benzo[c][1,2]oxaborol-6-yl)-benzamide] | > 10 | >44 | 631 | 0.227 | 50 (≈ 18 µg/mL) | –
CC1(C)OB(O)c2cc(NC(=O)c3ccc(F)cc3)ccc21 [compound 44, 4-Fluoro-N-(1-hydroxy-3,3-dimethyl-1,3-dihydro-benzo[c][1,2]oxaborol-6-yl)-benzamide] | > 10 | – | > 16700 | > 5 | 100 (≈ 29.9 µg/mL) | –
CC1(C)OB(O)c2cc(NC(=O)c3ccc(Cl)cc3Cl)ccc21 [compound 65, 2,4-Dichloro-N-(1-hydroxy-3,3-dimethyl-1,3-dihydro-benzo[c][1,2]oxaborol-6-yl)-benzamide] | > 10 | – | – | 0.278 | 50 (≈ 17.5 µg/mL) | –
CC1(C)OB(O)c2cc(NC(=O)c3ccc(Br)cc3Cl)ccc21 [compound 76, 4-Bromo-2-chloro-N-(1-hydroxy-3,3-dimethyl-1,3-dihydro-benzo[c][1,2]oxaborol-6-yl)-benzamide] | > 10 | – | – | 0.185 | 25 (≈ 9.86 µg/mL) | –
CC(C)c1ccc(C(=O)Nc2ccc3c(c2)B(O)OC3(C)C)c(Cl)c1 [compound 101, 2-Chloro-N-(1-hydroxy-3,3-dimethyl-1,3-dihydro-benzo[c][1,2]oxaborol-6-yl)-4-isopropyl-benzamide] | 8.43 (≈ 23.6 µM) | – | – | – | 25 (≈ 8.94 µg/mL) | 0.05
Cc1ccc(F)c(C(=O)Nc2ccc3c(c2)B(O)OC3(C)C)c1Cl [compound 107, 2-Chloro-6-fluoro-N-(1-hydroxy-3,3-dimethyl-1,3-dihydro-benzo[c][1,2]oxaborol-6-yl)-3-methyl-benzamide] | > 10 | – | – | 0.566 | 4.3 (≈ 1.49 µg/mL) | –
CC1(C)OB(O)c2cc(NC(=O)c3ccc4ccccc4c3)ccc21 [compound 112, Naphthalene-2-carboxylic acid (1-hydroxy-3,3-dimethyl-1,3-dihydrobenzo[c][1,2]oxaborol-6-yl)-amide] | > 10 | – | – | 0.278 | 50 (≈ 16.6 µg/mL) | –
CC1(C)OB(O)c2cc(NC(=O)c3ccccn3)ccc21 [compound 114, Pyridine-2-carboxylic acid (1-hydroxy-3,3-dimethyl-1,3-dihydro-benzo[c][1,2]oxaborol-6-yl)-amide] | > 10 | – | – | > 5 | 100 (≈ 28.2 µg/mL) | –
